Data: patent US20210316003A1 (Immunomedics, Inc., priority 2020, published 2021)
Values joined by “and” are separate entries in the source; they are usually repeats but may differ in a detail not shown here. Identical values can stand only once.

Assays:
[1] = system: patients with metastatic urothelial cancer (mUC); experiment: Phase I/II trial IMMU-132-01 (NCT01631552), mUC cohort: efficacy by RECIST 1.1; format: in vivo, human; settings: for ORR (objective response rate): 10 mg/kg days 1 and 8 of 21-day cycles
Procedure: Endpoints included safety, investigator-evaluated objective response rate (ORR per RECIST 1.1), clinical benefit rate, duration of response (DOR), progression-free survival (PFS), and overall survival (OS). Sequencing analysis of differentially mutated and expressed genes and pathways was performed in subsets of tumors from responders and non-responders.
All patients had metastatic disease measurable by Response Evaluation Criteria in Solid Tumors, version 1.1 (RECIST 1.1) at the time of enrollment. Patients were required to have an Eastern Cooperative Oncology Group (ECOG) performance status of 0 to 1 with expected survival ≥6 months and adequate hepatic, renal, and hematologic function. […] Patients with stable brain metastases could be included only if they were ≥2 weeks beyond high-dose steroid treatment. Pre-selection of patients based on tumor Trop-2 expression was not required.
Hematopoietic growth factors or blood transfusions were allowed at the investigator's discretion, but not prior to the first dose. Other supportive care (antiemetics, anti-diarrheal medications, or bone-stabilizing agents) were allowed as medically needed.
Staging CT/magnetic resonance imaging (MRI) scans were obtained at baseline and at 8-week intervals from the start of treatment until progression requiring treatment discontinuation. […] Subsequent scans were done at 8-week intervals after the confirmatory scan. Patients with evidence of clinical benefit were permitted to receive treatment following disease progression. Response was assessed by investigators using RECIST, version 1.1. Efficacy endpoints included objective response rate (ORR), time to response, duration of response (DOR), clinical benefit rate (CBR; defined as CR, PR, or stable disease ≥6 months), progression-free survival (PFS), and overall survival (OS).
The data cut-off date for this analysis was Sep. 1, 2018. ORR and CBR were calculated with 95% confidence intervals estimated by the Clopper-Pearson method (Clopper & Pearson, 1934, Biometrika 26:404-13). PFS, OS, and time-to-event endpoints were analyzed by the Kaplan-Meier method, with medians and corresponding 95% confidence intervals determined by the Brookmeyer and Crowley method with log-log transformation. Descriptive statistics were used to characterize AEs. Fischer's exact test was applied to a matrix of pathway-associated gene counts of mutated and wild type phenotypes between responders and non-responders to identify pathways enriched in either of the two response groups. P-values for single sample GSEA (ssGSEA) enrichment score differences between the responder and non-responder patient groups were obtained from the Mann-Whitney statistical test.

[2] = system: TNBC xenografts; settings: nude mice bearing TNBC xenografts, independent of BRCA1/2 mutation status; cited from earlier work
[3] = system: patients with diverse metastatic cancers; settings: human, in vivo
Text: In the Phase I and the expansion phases, there are now 48 pts (excluding PDC) who are assessable by RECIST/CT for best response.

[4] = system: patients with diverse metastatic cancers; experiment: Phase I trial and phase II extension in diverse epithelial cancers: best response and time to progression; format: in vivo, human
Text: The present Example reports the initial Phase I trial of 25 patients (pts) who had failed multiple prior therapies (some including topoisomcrasc-I/II inhibiting drugs), and the ongoing Phase II extension now reporting on 69 pts, including in colorectal (CRC), small-cell and non-small cell lung (SCLC, NSCLC, respectively), triple-negative breast (TNBC), pancreatic (PDC), esophageal, gastric, prostate, ovarian, renal, urinary bladder, head/neck and hepatocellular cancers. Patients were refractory/relapsed after standard treatment regimens for metastatic cancer. […]
A total of 69 patients (including 25 patients in Phase I) with diverse metastatic cancers having a median of 3 prior therapies were reported. Eight patients had clinical progression and withdrew before CT assessment. Thirteen CT-assessable pancreatic cancer patients were separately reported. The median TTP (time to progression) in PDC patients was 11.9 wks (range 2 to 21.4 wks) compared to median 8 wks TTP for the preceding last therapy.
A total of 48 patients with diverse cancers had at least 1 CT-assessment from which Best Response and Time to Progression (TTP) were determined. […] For SCLC (small cell lung cancer), of 4 assessable patients there were 2 PR, 0 SD and 2 PD for a total response of 2/4 (50%). For CRC (colorectal cancer), of 18 assessable patients there were 1 PR, 11 SD and 6 PD for a total response of 12/18 (67%). For esophageal cancer, of 4 assessable patients there were 1 PR, 2 SD and 1 PD for a total response of 3/4 (75%). For NSCLC (non-small cell lung cancer), of 5 assessable patients there were 1 PR, 3 SD and 1 PD for a total response of 4/5 (80%). Over all patients treated, of 48 assessable patients there were 7 PR, 27 SD and 14 PD for a total response of 34/48 (71%).

[5] = system: patients with non-small cell lung cancer (NSCLC); settings: cited from earlier work
[6] = 10 mg/kg, N = 45, listed as Sacituzumab Govitecan
[7] = 48 assessable pts (excluding PDC)
[8] = 48 assessable pts (excluding PDC), listed as hRS7-SN-38
[9] = CRC, person, after 10 months of treatment
[10] = esophageal cancer, 4 assessable patients

Question: With sacituzumab govitecan as the substance, how does the “ORR (objective response rate)” value ([1]; N = 45, 10 mg/kg) read?
Answer: 31% and 31.1%

Question: And the “ORR (objective response rate)” value ([1]; N = 45, listed as Sacituzumab Govitecan, 10 mg/kg)?
Answer: 31.1%

Question: What about the “ORR, prior CPI- and platinum-treated patients” value ([1]; 10 mg/kg, 4 of 15, 10 mg/kg) of the same substance?
Answer: 27% and 26.7%

Question: And the “ORR, prior CPI-treated patients” value ([1]; 10 mg/kg, 4 of 17, 10 mg/kg)?
Answer: 24% and 23.5%

Question: What about the “ORR, patients with liver metastases” value ([1]; 10 mg/kg, 5 of 15, 10 mg/kg) of the same substance?
Answer: 33% and 33.3%

Question: And the “ORR, patients with any visceral involvement” value ([1]; 10 mg/kg, 9 of 33)?
Answer: 27.3%

Question: What about the “Clinical benefit rate, No. of patients” value ([1]; 10 mg/kg, N = 45) of the same substance?
Answer: 21

Question: What about the “Median OS” value ([1]; 10 mg/kg, N = 45) of the same substance?
Answer: 16.3 months

Question: And the “Median PFS” value ([1]; 10 mg/kg, N = 45)?
Answer: 7.3 months

Question: And the “ORR, No. of patients” value ([1]; 10 mg/kg, N = 45)?
Answer: 14

Question: What about the “CR, % of patients” value ([1]; 10 mg/kg, N = 45, 10 mg/kg) of the same substance?
Answer: (4.4) %

Question: And the “PD, % of patients” value ([1]; 10 mg/kg, N = 45, 10 mg/kg)?
Answer: (22.2) %

Question: And the “PR, % of patients” value ([1]; 10 mg/kg, N = 45, 10 mg/kg)?
Answer: (26.7) %

Question: And the “CR, % of patients” value [1, 6]?
Answer: 4.4%

Question: And the “PD, % of patients” value [1, 6]?
Answer: 22.2%

Question: What about the “PR, % of patients” value [1, 6] of the same substance?
Answer: 26.7%

Question: What about the “Median DOR (duration of response)” value ([1]; 10 mg/kg, responders n = 14) of the same substance?
Answer: 12.9 months

Question: And the “Time to onset of response, median” value ([1]; 10 mg/kg, responders n = 14)?
Answer: 1.9 months

Question: And the “Time to onset of response, range” value ([1]; 10 mg/kg, responders n = 14)?
Answer: 1.7-7.4 months

Question: And the “Ongoing response of patients still on treatment at time of analysis” value ([1]; 3 patients, FIG. 1B)?
Answer: > 17 months and > 19 months and > 29 months

Question: And the “Responders with response duration of more than 12 months” value ([1]; 7 of 14 responders)?
Answer: 50%

Question: What about the “Patients with a reduction of target lesions” value ([1]; 31 of 40 patients with post-baseline assessment) of the same substance?
Answer: 77.5%

Question: What about the “Tumor growth in combination with olaparib, rucaparib and talazoparib” value [2] of the same substance?
Answer: Synthetic lethality and synergistic inhibition of tumor growth

Question: And the “Anti-hRS7 or anti-SN-38 antibodies” value [3]?
Answer: No anti-hRS7 or anti-SN-38 antibodies were detected

Question: What about the “Partial response (PR), % of patients” value [4, 7] of the same substance?
Answer: 15%

Question: What about the “Stable disease (SD), % of patients” value [4, 7] of the same substance?
Answer: 56%

Question: What about the “Stable disease (SD), number of patients” value [4, 7] of the same substance?
Answer: 27

Question: What about the “Total response [PR+SD], % of patients” value [4, 7] of the same substance?
Answer: 79%

Question: What about the “Total response [PR+SD], number of patients” value [4, 7] of the same substance?
Answer: 38

Question: And the “Total response [PR+SD], % of patients” value [4, 8]?
Answer: 71%

Question: What about the “Total response [PR+SD], number of patients” value [4, 8] of the same substance?
Answer: 34/48

Question: And the “Total response [PR+SD]” value ([4]; CRC, 12/18)?
Answer: 67%

Question: And the “PD, number of patients” value ([4]; CRC, 18 assessable patients)?
Answer: 6

Question: And the “PR, number of patients” value ([4]; CRC, 18 assessable patients)?
Answer: 1

Question: What about the “CEA after treatment (decrease from 781), single patient” value [4, 9] of the same substance?
Answer: 26.5 ng/mF

Question: What about the “Maximum reduction in target lesions, single patient” value [4, 9] of the same substance?
Answer: 65%

Question: And the “Reduction in target lesions on first CT assessment (PR), single patient” value ([4]; CRC, person, starting dose 8 mg/kg)?
Answer: 37%

Question: What about the “Total response [PR+SD]” value ([4]; NSCLC, 4/5) of the same substance?
Answer: 80%

Question: What about the “PD, number of patients” value ([4]; NSCLC, 5 assessable patients) of the same substance?
Answer: 1

Question: And the “PR, number of patients” value ([4]; NSCLC, 5 assessable patients)?
Answer: 1

Question: What about the “Primary target lesion size at first CT (from 5.6 cm), single patient” value ([4]; NSCLC, person, after 6th dose) of the same substance?
Answer: 3.2 cm

Question: And the “Total response [PR+SD]” value ([4]; SCLC, 2/4)?
Answer: 50%

Question: And the “PD, number of patients” value ([4]; SCLC, 4 assessable patients)?
Answer: 2

Question: What about the “PR, number of patients” value ([4]; SCLC, 4 assessable patients) of the same substance?
Answer: 2

Question: What about the “Reduction in target lesions, single patient” value ([4]; SCLC, person, 12 mg/kg reduced to 6.8 mg/kg, after two months) of the same substance?
Answer: 38%

Question: And the “Total response [PR+SD]” value ([4]; TNBC, 6/8)?
Answer: 75%

Question: What about the “PD, number of patients” value ([4]; TNBC, 8 assessable patients) of the same substance?
Answer: 2

Question: What about the “PR, number of patients” value ([4]; TNBC, 8 assessable patients) of the same substance?
Answer: 2

Question: What about the “PD, number of patients” value ([4]; all, 48 assessable patients) of the same substance?
Answer: 14

Question: And the “PR, number of patients” value ([4]; all, 48 assessable patients)?
Answer: 7

Question: What about the “Total response [PR+SD]” value ([4]; esophageal cancer, 3/4) of the same substance?
Answer: 75%

Question: What about the “PD, number of patients” value [4, 10] of the same substance?
Answer: 1

Question: What about the “PR, number of patients” value [4, 10] of the same substance?
Answer: 1

Question: What about the ORR ([5]; 47 response assessable patients, median of three prior therapies) of the same substance?
Answer: 19%

Question: And the Clinical benefit rate ([5]; 47 response assessable patients)?
Answer: 43%

Question: And the “Median OS” value [5]?
Answer: 9.5 months

Question: What about the “Median PFS” value [5] of the same substance?
Answer: 5.2 months
